From ChEMBL document CHEMBL5444388, “Affinity Phenotypic Cellular Literature for EUbOPEN Chemogenomic Library” (2024)

Experiments:
Assay type in all cases: functional, cell-based
Parameters in all cases: recommended concentration 100 nM
[1] = target: Centromere-associated protein E (Homo sapiens) (UniProt Q02224); assay: Affinity Phenotypic Cellular interaction: (Cell-growth inhibition assays (growth inhibitory effect colon cancer cell line T-47D)) EUB0000734a CENPE; details: T47D, Affinity Phenotypic Cellular Source Knowledge https://pubmed.ncbi.nlm.nih.gov/20167803/
Centromere-associated protein E (Homo sapiens), sequence (Q02224 whole entry): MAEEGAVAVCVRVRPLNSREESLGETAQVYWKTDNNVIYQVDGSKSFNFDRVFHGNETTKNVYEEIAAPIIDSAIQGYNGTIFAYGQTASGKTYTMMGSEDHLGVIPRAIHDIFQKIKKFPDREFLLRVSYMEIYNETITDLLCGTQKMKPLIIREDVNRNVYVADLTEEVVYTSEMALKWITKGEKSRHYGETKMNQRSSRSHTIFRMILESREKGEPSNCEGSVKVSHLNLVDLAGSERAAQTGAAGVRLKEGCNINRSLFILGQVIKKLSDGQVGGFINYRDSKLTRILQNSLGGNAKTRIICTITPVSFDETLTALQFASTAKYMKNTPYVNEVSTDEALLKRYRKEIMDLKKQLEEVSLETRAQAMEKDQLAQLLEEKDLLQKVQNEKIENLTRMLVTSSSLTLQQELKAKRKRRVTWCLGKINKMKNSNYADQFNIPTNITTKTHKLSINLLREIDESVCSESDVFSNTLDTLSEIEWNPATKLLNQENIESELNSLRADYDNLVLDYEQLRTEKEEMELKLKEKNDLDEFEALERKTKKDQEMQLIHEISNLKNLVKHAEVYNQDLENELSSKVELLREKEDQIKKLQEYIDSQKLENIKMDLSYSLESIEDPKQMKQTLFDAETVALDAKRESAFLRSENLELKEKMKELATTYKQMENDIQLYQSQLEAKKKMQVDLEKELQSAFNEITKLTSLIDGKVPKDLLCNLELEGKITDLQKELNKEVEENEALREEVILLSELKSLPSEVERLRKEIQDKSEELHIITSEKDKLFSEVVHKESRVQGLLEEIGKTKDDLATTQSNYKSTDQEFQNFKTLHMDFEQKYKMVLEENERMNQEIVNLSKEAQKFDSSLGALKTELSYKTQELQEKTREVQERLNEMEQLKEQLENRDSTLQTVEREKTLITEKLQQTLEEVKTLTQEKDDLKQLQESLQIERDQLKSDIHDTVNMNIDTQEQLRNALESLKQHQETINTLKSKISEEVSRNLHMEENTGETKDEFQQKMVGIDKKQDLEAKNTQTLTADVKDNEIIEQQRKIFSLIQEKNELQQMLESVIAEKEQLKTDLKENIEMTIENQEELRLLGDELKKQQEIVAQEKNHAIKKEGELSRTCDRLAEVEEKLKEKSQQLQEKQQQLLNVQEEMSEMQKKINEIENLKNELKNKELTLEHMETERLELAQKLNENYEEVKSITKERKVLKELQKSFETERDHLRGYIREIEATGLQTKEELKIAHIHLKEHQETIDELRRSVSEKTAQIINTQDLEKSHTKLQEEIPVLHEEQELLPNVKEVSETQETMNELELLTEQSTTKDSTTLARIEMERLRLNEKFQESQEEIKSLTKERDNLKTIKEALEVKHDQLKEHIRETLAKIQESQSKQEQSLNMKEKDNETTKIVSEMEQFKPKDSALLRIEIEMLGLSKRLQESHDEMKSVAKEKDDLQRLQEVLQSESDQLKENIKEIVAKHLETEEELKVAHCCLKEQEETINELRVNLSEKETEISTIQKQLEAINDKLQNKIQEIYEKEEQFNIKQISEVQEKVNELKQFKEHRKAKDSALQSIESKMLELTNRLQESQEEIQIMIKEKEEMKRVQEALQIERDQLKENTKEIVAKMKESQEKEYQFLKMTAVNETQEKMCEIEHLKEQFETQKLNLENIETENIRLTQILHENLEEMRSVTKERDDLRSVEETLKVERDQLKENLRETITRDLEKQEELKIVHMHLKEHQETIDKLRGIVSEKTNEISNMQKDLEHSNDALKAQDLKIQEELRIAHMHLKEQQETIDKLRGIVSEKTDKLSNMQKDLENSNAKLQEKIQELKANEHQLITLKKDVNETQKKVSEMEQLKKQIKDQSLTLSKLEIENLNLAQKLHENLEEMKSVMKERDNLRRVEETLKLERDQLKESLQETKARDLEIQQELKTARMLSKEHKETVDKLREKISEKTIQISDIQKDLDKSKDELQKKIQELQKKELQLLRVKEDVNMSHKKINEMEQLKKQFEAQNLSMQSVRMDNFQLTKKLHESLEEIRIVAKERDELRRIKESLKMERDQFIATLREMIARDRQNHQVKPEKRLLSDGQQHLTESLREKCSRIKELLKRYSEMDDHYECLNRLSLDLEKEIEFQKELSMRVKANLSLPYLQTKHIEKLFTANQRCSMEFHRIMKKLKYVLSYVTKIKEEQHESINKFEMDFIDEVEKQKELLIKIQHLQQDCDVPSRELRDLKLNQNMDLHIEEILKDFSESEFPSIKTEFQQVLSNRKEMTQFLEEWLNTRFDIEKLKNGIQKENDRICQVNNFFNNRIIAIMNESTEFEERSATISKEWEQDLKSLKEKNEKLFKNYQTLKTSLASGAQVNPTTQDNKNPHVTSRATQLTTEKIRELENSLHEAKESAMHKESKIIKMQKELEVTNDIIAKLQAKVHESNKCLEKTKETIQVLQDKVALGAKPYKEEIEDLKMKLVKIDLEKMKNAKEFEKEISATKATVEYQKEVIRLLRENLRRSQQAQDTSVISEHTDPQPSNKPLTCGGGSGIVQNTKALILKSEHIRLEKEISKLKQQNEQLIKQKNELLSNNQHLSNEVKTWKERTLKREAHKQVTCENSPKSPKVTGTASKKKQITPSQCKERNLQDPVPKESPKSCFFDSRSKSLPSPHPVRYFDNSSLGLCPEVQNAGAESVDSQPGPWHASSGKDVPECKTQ

[2] = target: Centromere-associated protein E (Homo sapiens) (UniProt Q02224); assay: Affinity Phenotypic Cellular interaction: (Cell-growth inhibition assays (growth inhibitory effect colon cancer cell line SK-MEL-3)) EUB0000734a CENPE; details: SK-MEL3, Affinity Phenotypic Cellular Source Knowledge https://pubmed.ncbi.nlm.nih.gov/20167803/
[3] = target: Centromere-associated protein E (Homo sapiens) (UniProt Q02224); assay: Affinity Phenotypic Cellular interaction: (Cell-growth inhibition assays (growth inhibitory effect colon cancer cell line EFM-19)) EUB0000734a CENPE; details: Affinity Phenotypic Cellular Source Knowledge https://pubmed.ncbi.nlm.nih.gov/20167803/
[4] = target: Centromere-associated protein E (Homo sapiens) (UniProt Q02224); assay: Affinity Phenotypic Cellular interaction: (Cell-growth inhibition assays (growth inhibitory effect colon cancer cell line PC-3)) EUB0000734a CENPE; details: Affinity Phenotypic Cellular Source Knowledge https://pubmed.ncbi.nlm.nih.gov/20167803/
[5] = target: Centromere-associated protein E (Homo sapiens) (UniProt Q02224); assay: Affinity Phenotypic Cellular interaction: (Cell-growth inhibition assays (growth inhibitory effect colon cancer cell line SCC-25)) EUB0000734a CENPE; details: Affinity Phenotypic Cellular Source Knowledge https://pubmed.ncbi.nlm.nih.gov/20167803/
[6] = target: Centromere-associated protein E (Homo sapiens) (UniProt Q02224); assay: Affinity Phenotypic Cellular interaction: (Cell-growth inhibition assays (growth inhibitory effect colon cancer cell line SN12C)) EUB0000734a CENPE; details: Affinity Phenotypic Cellular Source Knowledge https://pubmed.ncbi.nlm.nih.gov/20167803/
[7] = target: Centromere-associated protein E (Homo sapiens) (UniProt Q02224); assay: Affinity Phenotypic Cellular interaction: (Cell-growth inhibition assays (growth inhibitory effect colon cancer cell line TK-10)) EUB0000734a CENPE; details: Affinity Phenotypic Cellular Source Knowledge https://pubmed.ncbi.nlm.nih.gov/20167803/
[8] = target: Centromere-associated protein E (Homo sapiens) (UniProt Q02224); assay: Affinity Phenotypic Cellular interaction: (Cell-growth inhibition assays (growth inhibitory effect colon cancer cell line T24)) EUB0000734a CENPE; details: T-24, Affinity Phenotypic Cellular Source Knowledge https://pubmed.ncbi.nlm.nih.gov/20167803/
[9] = target: Centromere-associated protein E (Homo sapiens) (UniProt Q02224); assay: Affinity Phenotypic Cellular interaction: (Cell-growth inhibition assays (growth inhibitory effect colon cancer cell line WiDr)) EUB0000734a CENPE; details: Affinity Phenotypic Cellular Source Knowledge https://pubmed.ncbi.nlm.nih.gov/20167803/
[10] = target: Centromere-associated protein E (Homo sapiens) (UniProt Q02224); assay: Affinity Phenotypic Cellular interaction: (Cell-growth inhibition assays (growth inhibitory effect colon cancer cell line SW837)) EUB0000734a CENPE; details: Affinity Phenotypic Cellular Source Knowledge https://pubmed.ncbi.nlm.nih.gov/20167803/
[11] = target: Centromere-associated protein E (Homo sapiens) (UniProt Q02224); assay: Affinity Phenotypic Cellular interaction: (Cell-growth inhibition assays (growth inhibitory effect colon cancer cell line SW-954)) EUB0000734a CENPE; details: Affinity Phenotypic Cellular Source Knowledge https://pubmed.ncbi.nlm.nih.gov/20167803/
[12] = target: Centromere-associated protein E (Homo sapiens) (UniProt Q02224); assay: Affinity Phenotypic Cellular interaction: (Cell-growth inhibition assays (growth inhibitory effect colon cancer cell line HEC-1-A)) EUB0000734a CENPE; details: Affinity Phenotypic Cellular Source Knowledge https://pubmed.ncbi.nlm.nih.gov/20167803/
[13] = target: Centromere-associated protein E (Homo sapiens) (UniProt Q02224); assay: Affinity Phenotypic Cellular interaction: (Cell-growth inhibition assays (growth inhibitory effect colon cancer cell line SF-539)) EUB0000734a CENPE; details: Affinity Phenotypic Cellular Source Knowledge https://pubmed.ncbi.nlm.nih.gov/20167803/
[14] = target: Centromere-associated protein E (Homo sapiens) (UniProt Q02224); assay: Affinity Phenotypic Cellular interaction: (Cell-growth inhibition assays (growth inhibitory effect colon cancer cell line MOLT-16)) EUB0000734a CENPE; details: Affinity Phenotypic Cellular Source Knowledge https://pubmed.ncbi.nlm.nih.gov/20167803/
[15] = target: Centromere-associated protein E (Homo sapiens) (UniProt Q02224); assay: Affinity Phenotypic Cellular interaction: (Cell-growth inhibition assays (growth inhibitory effect colon cancer cell line CHP-212)) EUB0000734a CENPE; details: Affinity Phenotypic Cellular Source Knowledge https://pubmed.ncbi.nlm.nih.gov/20167803/
[16] = target: Centromere-associated protein E (Homo sapiens) (UniProt Q02224); assay: Affinity Phenotypic Cellular interaction: (Cell-growth inhibition assays (growth inhibitory effect colon cancer cell line SNU-423)) EUB0000734a CENPE; details: Affinity Phenotypic Cellular Source Knowledge https://pubmed.ncbi.nlm.nih.gov/20167803/
[17] = target: Centromere-associated protein E (Homo sapiens) (UniProt Q02224); assay: Affinity Phenotypic Cellular interaction: (Cell-growth inhibition assays (growth inhibitory effect colon cancer cell line CRO-AP2)) EUB0000734a CENPE; details: Affinity Phenotypic Cellular Source Knowledge https://pubmed.ncbi.nlm.nih.gov/20167803/
[18] = target: Centromere-associated protein E (Homo sapiens) (UniProt Q02224); assay: Affinity Phenotypic Cellular interaction: (Cell-growth inhibition assays (growth inhibitory effect colon cancer cell line MDA-MB-435)) EUB0000734a CENPE; details: Affinity Phenotypic Cellular Source Knowledge https://pubmed.ncbi.nlm.nih.gov/20167803/
[19] = target: Centromere-associated protein E (Homo sapiens) (UniProt Q02224); assay: Affinity Phenotypic Cellular interaction: (Cell-growth inhibition assays (growth inhibitory effect colon cancer cell line SNU-449)) EUB0000734a CENPE; details: Affinity Phenotypic Cellular Source Knowledge https://pubmed.ncbi.nlm.nih.gov/20167803/
[20] = target: Centromere-associated protein E (Homo sapiens) (UniProt Q02224); assay: Affinity Phenotypic Cellular interaction: (Cell-growth inhibition assays (growth inhibitory effect colon cancer cell line SNU-398)) EUB0000734a CENPE; details: Affinity Phenotypic Cellular Source Knowledge https://pubmed.ncbi.nlm.nih.gov/20167803/
[21] = target: Centromere-associated protein E (Homo sapiens) (UniProt Q02224); assay: Affinity Phenotypic Cellular interaction: (Cell-growth inhibition assays (growth inhibitory effect colon cancer cell line COLO 201)) EUB0000734a CENPE; details: Affinity Phenotypic Cellular Source Knowledge https://pubmed.ncbi.nlm.nih.gov/20167803/
[22] = target: Centromere-associated protein E (Homo sapiens) (UniProt Q02224); assay: Affinity Phenotypic Cellular interaction: (Cell-growth inhibition assays (growth inhibitory effect colon cancer cell line OV-90)) EUB0000734a CENPE; details: Affinity Phenotypic Cellular Source Knowledge https://pubmed.ncbi.nlm.nih.gov/20167803/
[23] = target: Centromere-associated protein E (Homo sapiens) (UniProt Q02224); assay: Affinity Phenotypic Cellular interaction: (Cell-growth inhibition assays (growth inhibitory effect breast cancer cell line MT-3)) EUB0000734a CENPE; details: Affinity Phenotypic Cellular Source Knowledge https://pubmed.ncbi.nlm.nih.gov/20167803/
[24] = target: Centromere-associated protein E (Homo sapiens) (UniProt Q02224); assay: Affinity Phenotypic Cellular interaction: (Cell-growth inhibition assays (growth inhibitory effect colon cancer cell line SW756)) EUB0000734a CENPE; details: Affinity Phenotypic Cellular Source Knowledge https://pubmed.ncbi.nlm.nih.gov/20167803/

In the case of CC(C)Oc1ccc(C(=O)N[C@H](CNC(=O)CN(C)C)Cc2ccc(-c3cn4cccc([C@H](C)O)c4n3)cc2)cc1Cl, the GIC50 [1] is reported as 29 nM, the GIC50 [2] is reported as 30 nM and the GIC50 [3] is reported as 28 nM. For the same compound, the GIC50 [4] was 28 nM, the GIC50 [5] was 23 nM and the GIC50 [6] was 29 nM. The GIC50 [7] was 49 nM, the GIC50 [8] was 45 nM and the GIC50 [9] was 18 nM. For the same compound, the GIC50 [10] was 33 nM, the GIC50 [11] was 22 nM and the GIC50 [12] was 50 nM. The GIC50 [13] was 28 nM, the GIC50 [14] was 47 nM and the GIC50 [15] was 34 nM. The GIC50 [16] was 34 nM, the GIC50 [17] was 51 nM and the GIC50 [18] was 30 nM. It also gave a GIC50 [19] of 236 nM, a GIC50 [20] of 27 nM and a GIC50 [21] of 24 nM. The GIC50 [22] was 61 nM, the GIC50 [23] was 41 nM and the GIC50 [24] was 35 nM.
